Measured values reported in patent publication EP1881000A1, “Conjugates of 2-fluoro-2-deoxy-glucose and their uses as anti cancer agents” (INSTITUT NATIONAL DE LA SANTE ET DE LA RECHERCHE MEDICALE …, priority 2006, dated 2008).

What was measured:
Format in all cases: cell-based
tumour cells = test: In vitro cytotoxicity assay, statements over all cell lines of Table 1; details: Homo sapiens, PA-1
Source text: Normal human fibroblasts were purchased from Promocell (Heidelberg, Germany). This frozen culture was obtained from foreskin waste and the cells used in this work were from the seventh to twelfth passage of the culture. M4Beu, a human melanoma cell line, was established in the laboratory of Dr. J. F. Doré (INSERM, Unit 218, Lyon, France) from metastatic biopsy specimens and maintained in cell culture for almost 20 years in our lab. Breast cancer adenocarcinoma MCF 7, prostatic adenocarcinoma PC 3, colon adenocarcinoma DLD-1, lung non-small cell carcinoma A 549, ovary adenocarcinoma PA1 human cell lines and L 929 murine cell line were purchased from the European Collection of Cell Cultures (ECACC; Salisbury, United Kingdom). Murine Melanoma B16 was purchased from American Type of Culture Collection (ATCC, Manassas, USA) and murine colon carcinoma cell line CT-26 was obtained from Dr I. J. Fidler (University of Texas M.D. Anderson Cancer Center, Houston). […]
Resazurin was identified as the Alamar blue dye (O'Brien, J. et al.; European Journal of Biochemistry, 267, 5421-6, (2000)). […] The plates were incubated 1 h at 37° C. in an humidified atmosphere with 5% of CO2 for fluorescence development by living cells. Fluorescence was then measured on the automated 96-well plate reader Fluoroskan Ascent FL™ (Labsystems) using an excitation wavelength of 530 nm and an emission one of 590 nm. […]

[1] = system: Breast cancer adenocarcinoma MCF 7; test: In vitro cytotoxicity assay (resazurin reduction test); details: Homo sapiens; MCF7; 48-h continuous drug exposure
Source text: (§1) Normal human fibroblasts were purchased from Promocell (Heidelberg, Germany). This frozen culture was obtained from foreskin waste and the cells used in this work were from the seventh to twelfth passage of the culture. M4Beu, a human melanoma cell line, was established in the laboratory of Dr. J. F. Doré (INSERM, Unit 218, Lyon, France) from metastatic biopsy specimens and maintained in cell culture for almost 20 years in our lab. Breast cancer adenocarcinoma MCF 7, prostatic adenocarcinoma PC 3, colon adenocarcinoma DLD-1, lung non-small cell carcinoma A 549, ovary adenocarcinoma PA1 human cell lines and L 929 murine cell line were purchased from the European Collection of Cell Cultures (ECACC; Salisbury, United Kingdom). Murine Melanoma B16 was purchased from American Type of Culture Collection (ATCC, Manassas, USA) and murine colon carcinoma cell line CT-26 was obtained from Dr I. J. Fidler (University of Texas M.D. Anderson Cancer Center, Houston).
(§2) Stock cell cultures were maintained as monolayers in 75cm^2 culture flasks in Glutamax Eagle's minimum essential medium with Earle's salts (MEM; Gibco BRL, Paisley, UK) supplemented with 10% fetal calf serum (Sigma, St Quentin Fallavier, France), 1 mM sodium pyruvate (Gibco), 1X vitamins solution (Gibco), 1X non essential amino acids solution (Gibco) and 4 µg/ml of gentamicine (Gibco). Cells were grown at 37°C in a humidified atmosphere containing 5% CO2.
(§3) Cells were plated at a density of 5 x 10^3 cells per well in 96-well microplates (Nunclon™, Nunc, Roskilde, Denmark) in 150 µl of culture medium and were allowed to adhere for 16 h before treatment with the compound tested.
(§4) Stock solution of each compound was prepared in dimethylsulfoxide (DMSO) and kept at -20°C. until use. The percentage of DMSO was kept at 0.5% (v/v) whichever the concentration tested. […] Fifty microliters of a 4X solution in MEM was then added and a 48-h continuous drug exposure protocol was used. Then, the cytotoxic effect of compounds on tumour cells was tested by using Resazurin reduction test.
(§5) Resazurin was identified as the Alamar blue dye (O'Brien, J. et al.; European Journal of Biochemistry, 267, 5421-6, (2000)). The resazurin reduction test (RRT) was carried out according to the protocol described here. Briefly, plates were rinsed by 200 µl PBS (37° C, Gibco) using a multichannel dispenser (Labsystems, Helsinki, Finland) and emptied by overturning on absorbent toweling. Then, 150 µl of a 25 µg/ml solution of resazurin in MEM without SVF nor Phenol red was added in each well. The plates were incubated 1 h at 37° C. in an humidified atmosphere with 5% of CO2 for fluorescence development by living cells. Fluorescence was then measured on the automated 96-well plate reader Fluoroskan Ascent FL™ (Labsystems) using an excitation wavelength of 530 nm and an emission one of 590 nm.
(§6) Cytotoxic activity has been tested against the six human tumour cell lines breast adenocarcinoma MCF-7, colon adenocarcinoma DLD-1, ovary adenocarcinoma PA1, prostatic adenocarcinoma PC3, lung carcinoma A549, melanoma M4Beu and a primary culture of human fibroblasts.

Murine Melanoma B16 = test: as above; details: Mus musculus, 48-h continuous drug exposure
Source text: as §1, §2, §3, §4, §5

[2] = system: murine colon carcinoma cell line CT-26; test: as above; details: Mus musculus; CT26; 48-h continuous drug exposure
Source text: as §1, §2, §3, §4, §5

[3] = system: prostatic adenocarcinoma PC 3; test: as above; details: Homo sapiens; PC3; 48-h continuous drug exposure
Source text: as §1, §2, §3, §4, §5, §6

Row | Structure (SMILES) | IC50 (tumour cells) [µM] | IC50 [1] [µM] | IC50 (Murine Melanoma B16) [µM] | IC50 [2] [µM] | IC50 [3] [µM]
1 | O=C(O)CCCc1ccc(N(CCCl)CCCl)cc1 [chlorambucil, reference compound] | > 40 | > 100 | 42.6 ± 9.5 | 6.3 ± 0.4 | –
2 | CC(=O)OC[C@H]1O[C@@H](NC(=O)CNC(=O)CCCc2ccc(N(CCCl)CCCl)cc2)[C@H](F)[C@@H](OC(C)=O)[C@@H]1OC(C)=O [Compound 21a, N-[2-(3,4,6-tri-O-acetyl-2-deoxy-2-fluoro-β-D-glucopyranosylamino)-2-oxoethyl]-4-{4-[bis(2-chloroethyl)amino]phenyl}butanamide] | – | 8 ± 2 | 6.4 ± 0.6 | 7 ± 1 | 10 ± 2
3 | CC(=O)OC[C@H]1O[C@@H](Oc2ccc(NC(=O)CNC(=O)CCCc3ccc(N(CCCl)CCCl)cc3)cc2)[C@H](F)[C@@H](OC(C)=O)[C@@H]1OC(C)=O [Compound 40a, N-{2-[4-(3,4,6-tri-O-acetyl-2-deoxy-2-fluoro-β-D-glucopyranosyloxy)phenyl]amino-2-oxoethyl}-4-{4-[bis(2-chloroethyl)amino]phenyl}butanamide] | – | – | 10 ± 0.5 | 4.3 ± 0.2 | 7 ± 2
